# In patent US6951868B2, “Azabicyclic-phenyl-fused-heterocyclic compounds for treatment of disease” (Pfizer Inc., priority 2001, dated 2005):
# Target: T1, chimeric α7-5HT3 ion channel (UniProt P23979+P36544, M226I/T225I)
# T1 construct: pore forming region of the mouse 5HT3 receptor (fusion partner, same polypeptide); expressed in transfected cells
# Assay: Cell-based FLIPR assay measuring the EC50 of α7 nAChR agonists on the chimeric α7-5HT3 receptor
# Set-up: species or system human/mouse
# Settings: SH-EP1 cells expressing chimeric α7-5HT3 ion channel; increase in intracellular calcium (Calcium Green fluorescence, FLIPR)
# From the text: Cell-based Assay for Measuring the EC50 of α7 nAChR Agonists
# Construction and Expression of the α7-5HT3 Receptor:
# The cDNA encoding the N-terminal 201 amino acids from the human α7 nAChR that contain the ligand binding domain of the ion channel was fused to the cDNA encoding the pore forming region of the mouse 5HT3 receptor as described by Eisele J L, et al., Chimaeric nicotinic-serotonergic receptor combines distinct ligand binding and channel specificities, Nature (1993), December 2;366(6454):479-83, and modified by Groppi, et al., WO 00/73431. The chimeric α7-5HT3 ion channel was inserted into pGS175 and pGS179 which contain the resistance genes for G-418 and hygromycin B, respectively. […]
# To assay the activity of the α7-5HT3 ion channel, cells expressing the channel were plated into each well of either a 96 or 384 well dish (Corning #3614) and grown to confluence prior to assay. […] The activity of compounds on the chimeric α7-5HT3 ion channel was analyzed on FLIPR. […] Fluorescent emission was measured above 525 nanometers with an appropriate F-stop to maintain a maximal signal to noise ratio. Agonist activity of each compound was measured by directly adding the compound to cells expressing the chimeric α7-5HT3 ion channel and measuring the resulting increase in intracellular calcium that is caused by the agonist-induced activation of the chimeric ion channel. […]
# T1 sequence (P36544+P23979 fused P36544:T225I/P36544:M226I): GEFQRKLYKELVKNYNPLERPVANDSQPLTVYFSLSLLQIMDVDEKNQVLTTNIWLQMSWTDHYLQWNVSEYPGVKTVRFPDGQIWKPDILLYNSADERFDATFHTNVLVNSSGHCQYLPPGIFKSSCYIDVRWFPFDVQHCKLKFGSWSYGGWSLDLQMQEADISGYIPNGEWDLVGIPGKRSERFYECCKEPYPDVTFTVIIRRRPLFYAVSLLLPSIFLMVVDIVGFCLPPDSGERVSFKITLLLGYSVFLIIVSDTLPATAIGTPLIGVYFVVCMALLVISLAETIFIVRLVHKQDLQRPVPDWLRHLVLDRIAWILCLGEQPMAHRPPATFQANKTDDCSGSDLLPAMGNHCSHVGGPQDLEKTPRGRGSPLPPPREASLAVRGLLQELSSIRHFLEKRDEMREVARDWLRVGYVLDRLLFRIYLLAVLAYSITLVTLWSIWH
row,Structure (SMILES),Agonist activity (result in words)
1,"O=C(N[C@H]1CN2CCC1CC2)c1ccc2c(c1)OCC(COCc1ccccc1)O2.O=C(O)/C=C/C(=O)O (single isomer, unassigned) [Example 6(b)]",inactive
2,"Cl.O=C(N[C@H]1CN2CCC1CC2)c1ccc2c(c1)O[C@H](COc1ccccc1)CO2 [Example 12, (3R)-N-[(3R)-1-Azabicyclo[2.2.2]oct-3-yl]-3-(phenoxymethyl)-2,3-dihydro-1,4-benzodioxine-6-carboxamide Hydrochloride]",inactive
